Experimental data taken from US20200188477A1, “A MEDICAMENT FOR THE TREATMENT OF DISEASES BY BIOFILM FORMING MICROORGANISMS” (priority 2017, published 2020).
Values after ≈ are worked out from the molar mass of the structure shown. Like-named read-outs stand apart in the source and are kept apart here.

Test system: M. smegmatis
Experiment: microbe, parasite or virus in culture
Type: cell-based, Mycobacterium smegmatis
Conditions: for MIC: Mycolicibacterium smegmatis

NNC(=O)c1ccncc1 [isoniazide]
MIC (absence of acarbose, PpiB (Tet+), read-out: MIC): 64 µg/mL (≈ 467 µM)
MIC (absence of acarbose, VC (Tet+), read-out: MIC): 16 µg/mL (≈ 117 µM)
MIC (absence of cyclosporine A, PpiB (tet+), read-out: minimum inhibitory concentration (MIC)): 64 µg/mL (≈ 467 µM)
MIC (absence of cyclosporine A, […], read-out: minimum inhibitory concentration (MIC)): 16 µg/mL (≈ 117 µM)
MIC (presence of acarbose, PpiB (Tet+), read-out: MIC): 32 µg/mL
MIC (presence of cyclosporine A, PpiB (tet+), read-out: MIC): 32 µg/mL
MIC (presence of cyclosporine A, […], read-out: MIC): 8 µg/mL

CC[C@@H](CO)NCCN[C@@H](CC)CO [ethambutol]
concentration that inhibits culture (absence of cyclosporine A, […]): 4 µg/mL
inhibitory effect on culture (presence of cyclosporine A, […]): enhanced
